Reference: US20180000085A1, “USE OF PICOLINAMIDE COMPOUNDS WITH FUNGICIDAL ACTIVITY” (DOW AGROSCIENCES LLC, priority 2014, published 2018)

Legend:
Zymoseptoria tritici = test: Leaf blotch of wheat (SEPTTR) disease control on wheat seedlings; format: in vivo; set-up: key to SEPTTR 1DP, HV activity at 100 ppm (% control rating) / SEPTTR 3DC, HV activity at 100 ppm (% control rating) / SEPTTR disease control, 1DP / SEPTTR disease control, 3DC / SEPTTR 1DP disease control rating, HV activity / SEPTTR 3DC disease control rating, HV activity / SEPTTR 3DC, LV activity at 125.1 g/H (% Control rating) / SEPTTR 1DP, LV activity at 125.1 g/H (% Control rating) / SEPTTR 1DP disease control rating, LV activity at 125.1 g/H / SEPTTR 3DC disease control rating, LV activity at 125.1 g/H / SEPTTR 3DC disease control rating, HV activity at 100 ppm / SEPTTR 1DP disease control rating, HV activity at 100 ppm / HV activity at 100 ppm SEPTTR 3DC (disease control rating) / HV activity at 100 ppm SEPTTR 1DP (disease control rating) / LV activity at 125.1 g/H SEPTTR 1DP (disease control rating) / LV activity at 125.1 g/H SEPTTR 3DC (disease control rating): A: > 80; B: ≤ 80; C: Not Tested; D: No Activity Observed in the Reported Assay; settings: for SEPTTR 1DP disease control rating, HV activity / SEPTTR 3DC disease control rating, HV activity: HV application at 100 ppm; for SEPTTR 1DP disease control rating, HV activity / LV activity at 125.1 g/H SEPTTR 1DP (disease control rating) / SEPTTR 1DP, LV activity at 125.1 g/H (% Control rating): 1 Day Protectant; for SEPTTR 1DP disease control rating, HV activity / SEPTTR 3DC disease control rating, HV activity / LV activity at 125.1 g/H SEPTTR 1DP (disease control rating) / LV activity at 125.1 g/H SEPTTR 3DC (disease control rating): wheat leaf blotch; for SEPTTR 3DC disease control rating, HV activity / LV activity at 125.1 g/H SEPTTR 3DC (disease control rating) / SEPTTR 3DC, LV activity at 125.1 g/H (% Control rating): 3 Day Curative; for LV activity at 125.1 g/H SEPTTR 1DP (disease control rating) / LV activity at 125.1 g/H SEPTTR 3DC (disease control rating) / SEPTTR 1DP, LV activity at 125.1 g/H (% Control rating) / SEPTTR 3DC, LV activity at 125.1 g/H (% Control rating): low volume application
Puccinia triticina = test: Wheat brown rust (PUCCRT) disease control on wheat seedlings; format: in vivo; settings: for PUCCRT 1DP disease control rating, HV activity / PUCCRT 3DC disease control rating, HV activity: HV application at 100 ppm; for PUCCRT 1DP disease control rating, HV activity / LV activity at 125.1 g/H PUCCRT 1DP (disease control rating) / PUCCRT 1DP, LV activity at 125.1 g/H (% Control rating): 1 Day Protectant; for PUCCRT 1DP disease control rating, HV activity / PUCCRT 3DC disease control rating, HV activity / LV activity at 125.1 g/H PUCCRT 1DP (disease control rating) / LV activity at 125.1 g/H PUCCRT 3DC (disease control rating): wheat brown rust; for PUCCRT 3DC disease control rating, HV activity / LV activity at 125.1 g/H PUCCRT 3DC (disease control rating) / PUCCRT 3DC, LV activity at 125.1 g/H (% Control rating): 3 Day Curative; for LV activity at 125.1 g/H PUCCRT 1DP (disease control rating) / LV activity at 125.1 g/H PUCCRT 3DC (disease control rating) / PUCCRT 1DP, LV activity at 125.1 g/H (% Control rating) / PUCCRT 3DC, LV activity at 125.1 g/H (% Control rating): low volume application

Row | SMILES | SEPTTR 1DP disease control rating, HV activity (Zymoseptoria tritici) | SEPTTR 3DC disease control rating, HV activity (Zymoseptoria tritici) | PUCCRT 1DP disease control rating, HV activity (Puccinia triticina) | PUCCRT 3DC disease control rating, HV activity (Puccinia triticina) | SEPTTR 1DP, LV activity at 125.1 g/H (% Control rating) (Zymoseptoria tritici) | SEPTTR 3DC, LV activity at 125.1 g/H (% Control rating) (Zymoseptoria tritici) | PUCCRT 1DP, LV activity at 125.1 g/H (% Control rating) (Puccinia triticina) | PUCCRT 3DC, LV activity at 125.1 g/H (% Control rating) (Puccinia triticina) | also measured
1 | CC[C@H](NC(=O)c1nccc(OC)c1O)C(=O)O[C@@H](C)[C@@H](COc1ccccc1)Oc1ccccc1 [Cmpd 316] | B (≤ 80) | B (≤ 80) | A (> 80) | A (> 80) | – | – | – | – | –
2 | COc1ccnc(C(=O)N[C@@H](C)C(=O)O[C@@H](C)[C@H](Oc2ccc(Cl)cc2)C(C)C)c1O [Cmpd 359] | A (> 80) | A (> 80) | A (> 80) | A (> 80) | – | – | – | – | –
3 | CCC(C)C(Oc1ccccc1)C(C)OC(=O)C(C)NC(=O)c1nccc(OC)c1O (stereo not drawn) [Cmpd 440] | A (> 80) | A (> 80) | A (> 80) | A (> 80) | – | – | – | – | –
4 | C=CC[C@@H](Oc1cc(F)cc(Cl)c1)[C@H](C)OC(=O)[C@H](C)NC(=O)c1nccc(OC)c1OC(C)=O [Cmpd 1080] | – | – | – | – | – | – | – | – | LV activity at 125.1 g/H SEPTTR 1DP (disease control rating) (Zymoseptoria tritici): B (≤ 80); LV activity at 125.1 g/H SEPTTR 3DC (disease control rating) (Zymoseptoria tritici): B (≤ 80); LV activity at 125.1 g/H PUCCRT 1DP (disease control rating) (Puccinia triticina): A (> 80); LV activity at 125.1 g/H PUCCRT 3DC (disease control rating) (Puccinia triticina): B (≤ 80)
5 | COc1ccnc(C(=O)N[C@@H](C)C(=O)O[C@@H](C)[C@@H](CC(C)C)Oc2cccc(F)c2)c1OC(C)=O [Cmpd 1113] | – | – | – | – | – | – | – | – | LV activity at 125.1 g/H SEPTTR 1DP (disease control rating) (Zymoseptoria tritici): A (> 80); LV activity at 125.1 g/H SEPTTR 3DC (disease control rating) (Zymoseptoria tritici): A (> 80); LV activity at 125.1 g/H PUCCRT 1DP (disease control rating) (Puccinia triticina): A (> 80); LV activity at 125.1 g/H PUCCRT 3DC (disease control rating) (Puccinia triticina): A (> 80)
6 | CCC(CC)[C@@H](Oc1ccc(-c2ccccc2)cc1)[C@H](C)OC(=O)[C@H](C)NC(=O)c1nccc(OC)c1OCOC(C)=O [Cmpd 596] | – | – | – | – | A (> 80) | B (≤ 80) | A (> 80) | B (≤ 80) | –
7 | CCC(CC)[C@@H](Oc1cccc(F)c1)[C@H](C)OC(=O)[C@H](C)NC(=O)c1nccc(OC)c1OCOC(C)=O [Cmpd 586] | – | – | – | – | B (≤ 80) | A (> 80) | A (> 80) | A (> 80) | –
8 | COCC[C@H](Cc1ccc(F)cc1)[C@@H](OC(=O)C(C)C)[C@H](C)OC(=O)[C@H](C)NC(=O)c1nccc(OC)c1OCOC(C)=O [Cmpd 499] | – | – | – | – | D | B (≤ 80) | A (> 80) | A (> 80) | –
9 | COc1ccnc(C(=O)N[C@@H](C)C(=O)O[C@@H](C)[C@H](Oc2ccc(Cl)cc2)C(C)C)c1OCOC(=O)C(C)C [Cmpd 573] | – | – | – | – | A (> 80) | A (> 80) | A (> 80) | A (> 80) | –
